# Assay results published in the kinase profiling compilation of Christmann-Franck et al. (2016).
# Columns and labels:
# ANKK1 (human) = ANKK1 (human) (UniProt Q8NFD2); test: KINOMEscan competition binding; settings: compound 10.0 µM
# BLK (human) = BLK (human) (UniProt P51451); test: KINOMEscan competition binding; settings: compound 10.0 µM
# MAPK3 (human) = MAPK3 (human) (UniProt P27361); test: KINOMEscan competition binding; settings: compound 10.0 µM
# MAK (human) = MAK (human) (UniProt P20794); test: KINOMEscan competition binding; settings: compound 10.0 µM
# RET (human) = RET (human) (UniProt P07949); test: KINOMEscan competition binding; settings: compound 10.0 µM
# NUAK1 (human) = NUAK1 (human) (UniProt O60285); test: KINOMEscan competition binding; settings: compound 10.0 µM
# DDR1 (human) = DDR1 (human) (UniProt Q08345); test: KINOMEscan competition binding; settings: compound 10.0 µM
# CHEK1 (human) = CHEK1 (human) (UniProt O14757); test: KINOMEscan competition binding; settings: compound 10.0 µM
# NEK11 (human) = NEK11 (human) (UniProt Q8NG66); test: KINOMEscan competition binding; settings: compound 10.0 µM
# MAP2K5 (human) = MAP2K5 (human) (UniProt Q13163); test: KINOMEscan competition binding; settings: compound 10.0 µM
# TLK1 (human) = TLK1 (human) (UniProt Q9UKI8); test: KINOMEscan competition binding; settings: compound 10.0 µM
# EIF2AK1 (human) = EIF2AK1 (human) (UniProt Q9BQI3); test: KINOMEscan competition binding; settings: compound 10.0 µM
# MAP2K4 (human) = MAP2K4 (human) (UniProt P45985); test: KINOMEscan competition binding; settings: compound 10.0 µM
# PAK3 (human) = PAK3 (human) (UniProt O75914); test: KINOMEscan competition binding; settings: compound 10.0 µM
# STK38 (human) = STK38 (human) (UniProt Q15208); test: KINOMEscan competition binding; settings: compound 10.0 µM
# LTK (human) = LTK (human) (UniProt P29376); test: KINOMEscan competition binding; settings: compound 10.0 µM
# HIPK2 (human) = HIPK2 (human) (UniProt Q9H2X6); test: KINOMEscan competition binding; settings: compound 10.0 µM
# SBK1 (human) = SBK1 (human) (UniProt Q52WX2); test: KINOMEscan competition binding; settings: compound 10.0 µM
# HCK (human) = HCK (human) (UniProt P08631); test: KINOMEscan competition binding; settings: compound 10.0 µM
# RPS6KA5 KD2 (human) = RPS6KA5 KD2 (human) (UniProt O75582); test: KINOMEscan competition binding; settings: compound 10.0 µM
# EPHA8 (human) = EPHA8 (human) (UniProt P29322); test: KINOMEscan competition binding; settings: compound 10.0 µM
# IRAK4 (human) = IRAK4 (human) (UniProt Q9NWZ3); test: KINOMEscan competition binding; settings: compound 10.0 µM
# MAP3K10 (human) = MAP3K10 (human) (UniProt Q02779); test: KINOMEscan competition binding; settings: compound 10.0 µM
# CDK4 CCND1 (human) = CDK4 CCND1 (human) (UniProt P11802+P24385); test: KINOMEscan competition binding; settings: compound 10.0 µM
# TIE1 (human) = TIE1 (human) (UniProt P35590); test: KINOMEscan competition binding; settings: compound 10.0 µM
# TBK1 (human) = TBK1 (human) (UniProt Q9UHD2); test: KINOMEscan competition binding; settings: compound 10.0 µM
# EPHA5 (human) = EPHA5 (human) (UniProt P54756); test: KINOMEscan competition binding; settings: compound 10.0 µM
# SGK110 (human) = SGK110 (human) (UniProt P0C264); test: KINOMEscan competition binding; settings: compound 10.0 µM
# MERTK (human) = MERTK (human) (UniProt Q12866); test: KINOMEscan competition binding; settings: compound 10.0 µM
# AAK1 (human) = AAK1 (human) (UniProt Q2M2I8); test: KINOMEscan competition binding; settings: compound 10.0 µM
# CDK2 (human) = CDK2 (human) (UniProt P24941); test: KINOMEscan competition binding; settings: compound 10.0 µM
# [1] = biological target: TYK2 JH1 catalytic (human) (UniProt P29597); test: KINOMEscan competition binding; settings: compound 10.0 µM
# STK38L (human) = STK38L (human) (UniProt Q9Y2H1); test: KINOMEscan competition binding; settings: compound 10.0 µM
# CLK4 (human) = CLK4 (human) (UniProt Q9HAZ1); test: KINOMEscan competition binding; settings: compound 10.0 µM
# PRKCI (human) = PRKCI (human) (UniProt P41743); test: KINOMEscan competition binding; settings: compound 10.0 µM
# PLK1 (human) = PLK1 (human) (UniProt P53350)
# LCK (mouse) = settings: accession and sequence are those of the human protein
# CSNK1D (human) = CSNK1D (human) (UniProt P48730)
# CASK (human) = CASK (human) (UniProt O14936); test: KINOMEscan competition binding; settings: compound 10.0 µM
# BMX (human) = BMX (human) (UniProt P51813); test: KINOMEscan competition binding; settings: compound 10.0 µM
# RPS6KA5 KD2 (human), sequence (O75582 whole entry, looked up): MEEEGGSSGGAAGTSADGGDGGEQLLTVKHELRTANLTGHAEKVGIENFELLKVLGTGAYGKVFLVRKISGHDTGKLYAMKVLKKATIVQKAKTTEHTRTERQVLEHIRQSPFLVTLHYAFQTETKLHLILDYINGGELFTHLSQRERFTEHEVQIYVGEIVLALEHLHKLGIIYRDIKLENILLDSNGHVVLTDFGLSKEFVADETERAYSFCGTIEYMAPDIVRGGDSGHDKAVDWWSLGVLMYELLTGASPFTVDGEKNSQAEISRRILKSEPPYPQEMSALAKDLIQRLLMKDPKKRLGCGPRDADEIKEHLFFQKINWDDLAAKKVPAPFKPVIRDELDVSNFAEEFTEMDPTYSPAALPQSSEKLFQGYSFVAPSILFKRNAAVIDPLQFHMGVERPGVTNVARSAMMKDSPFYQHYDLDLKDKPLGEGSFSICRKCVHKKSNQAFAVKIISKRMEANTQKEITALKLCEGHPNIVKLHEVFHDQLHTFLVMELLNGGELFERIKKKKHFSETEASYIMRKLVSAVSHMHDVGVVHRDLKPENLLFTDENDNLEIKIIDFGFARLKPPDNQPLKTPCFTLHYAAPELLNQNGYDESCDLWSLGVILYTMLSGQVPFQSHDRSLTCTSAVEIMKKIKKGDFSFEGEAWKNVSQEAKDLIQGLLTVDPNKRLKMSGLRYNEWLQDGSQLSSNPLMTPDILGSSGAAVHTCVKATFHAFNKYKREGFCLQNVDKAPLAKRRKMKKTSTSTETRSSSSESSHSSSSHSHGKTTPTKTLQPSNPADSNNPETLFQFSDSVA
# SGK110 (human), sequence (P0C264 whole entry, looked up): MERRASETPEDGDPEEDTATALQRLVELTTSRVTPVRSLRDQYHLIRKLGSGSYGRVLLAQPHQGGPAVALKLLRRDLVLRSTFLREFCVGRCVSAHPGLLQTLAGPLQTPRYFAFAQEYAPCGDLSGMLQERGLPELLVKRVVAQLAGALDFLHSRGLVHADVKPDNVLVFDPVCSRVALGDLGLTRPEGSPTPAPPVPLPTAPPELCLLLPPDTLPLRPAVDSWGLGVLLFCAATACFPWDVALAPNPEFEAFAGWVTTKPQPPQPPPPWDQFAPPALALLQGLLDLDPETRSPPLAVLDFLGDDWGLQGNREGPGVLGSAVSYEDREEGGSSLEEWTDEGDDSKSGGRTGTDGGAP
# EPHA8 (human), sequence (P29322 whole entry, looked up): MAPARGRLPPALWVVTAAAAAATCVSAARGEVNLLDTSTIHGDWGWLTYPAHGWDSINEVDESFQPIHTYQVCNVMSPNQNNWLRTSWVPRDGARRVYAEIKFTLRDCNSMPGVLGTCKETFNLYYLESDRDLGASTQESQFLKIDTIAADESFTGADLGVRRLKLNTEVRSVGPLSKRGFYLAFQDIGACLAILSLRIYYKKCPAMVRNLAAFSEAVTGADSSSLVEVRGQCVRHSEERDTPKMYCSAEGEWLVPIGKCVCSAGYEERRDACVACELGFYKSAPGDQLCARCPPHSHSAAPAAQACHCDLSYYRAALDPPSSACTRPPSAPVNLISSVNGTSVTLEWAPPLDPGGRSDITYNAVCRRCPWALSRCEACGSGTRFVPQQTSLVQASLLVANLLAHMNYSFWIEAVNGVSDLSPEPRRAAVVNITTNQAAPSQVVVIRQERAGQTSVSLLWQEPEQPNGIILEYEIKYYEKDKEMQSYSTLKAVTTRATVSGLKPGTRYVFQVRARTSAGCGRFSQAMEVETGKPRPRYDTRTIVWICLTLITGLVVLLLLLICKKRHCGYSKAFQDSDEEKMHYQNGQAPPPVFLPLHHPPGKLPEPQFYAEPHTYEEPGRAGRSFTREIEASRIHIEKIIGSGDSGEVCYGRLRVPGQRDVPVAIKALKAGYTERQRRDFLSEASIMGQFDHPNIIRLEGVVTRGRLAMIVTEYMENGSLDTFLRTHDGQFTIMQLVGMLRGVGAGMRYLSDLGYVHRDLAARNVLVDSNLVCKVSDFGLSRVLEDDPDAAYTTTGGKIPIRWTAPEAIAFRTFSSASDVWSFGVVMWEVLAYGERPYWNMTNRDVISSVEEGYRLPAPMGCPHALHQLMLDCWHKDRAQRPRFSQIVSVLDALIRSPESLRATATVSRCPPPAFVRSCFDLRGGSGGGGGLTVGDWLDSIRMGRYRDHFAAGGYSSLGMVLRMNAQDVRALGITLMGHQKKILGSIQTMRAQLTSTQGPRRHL
# HIPK2 (human), sequence (Q9H2X6 whole entry, looked up): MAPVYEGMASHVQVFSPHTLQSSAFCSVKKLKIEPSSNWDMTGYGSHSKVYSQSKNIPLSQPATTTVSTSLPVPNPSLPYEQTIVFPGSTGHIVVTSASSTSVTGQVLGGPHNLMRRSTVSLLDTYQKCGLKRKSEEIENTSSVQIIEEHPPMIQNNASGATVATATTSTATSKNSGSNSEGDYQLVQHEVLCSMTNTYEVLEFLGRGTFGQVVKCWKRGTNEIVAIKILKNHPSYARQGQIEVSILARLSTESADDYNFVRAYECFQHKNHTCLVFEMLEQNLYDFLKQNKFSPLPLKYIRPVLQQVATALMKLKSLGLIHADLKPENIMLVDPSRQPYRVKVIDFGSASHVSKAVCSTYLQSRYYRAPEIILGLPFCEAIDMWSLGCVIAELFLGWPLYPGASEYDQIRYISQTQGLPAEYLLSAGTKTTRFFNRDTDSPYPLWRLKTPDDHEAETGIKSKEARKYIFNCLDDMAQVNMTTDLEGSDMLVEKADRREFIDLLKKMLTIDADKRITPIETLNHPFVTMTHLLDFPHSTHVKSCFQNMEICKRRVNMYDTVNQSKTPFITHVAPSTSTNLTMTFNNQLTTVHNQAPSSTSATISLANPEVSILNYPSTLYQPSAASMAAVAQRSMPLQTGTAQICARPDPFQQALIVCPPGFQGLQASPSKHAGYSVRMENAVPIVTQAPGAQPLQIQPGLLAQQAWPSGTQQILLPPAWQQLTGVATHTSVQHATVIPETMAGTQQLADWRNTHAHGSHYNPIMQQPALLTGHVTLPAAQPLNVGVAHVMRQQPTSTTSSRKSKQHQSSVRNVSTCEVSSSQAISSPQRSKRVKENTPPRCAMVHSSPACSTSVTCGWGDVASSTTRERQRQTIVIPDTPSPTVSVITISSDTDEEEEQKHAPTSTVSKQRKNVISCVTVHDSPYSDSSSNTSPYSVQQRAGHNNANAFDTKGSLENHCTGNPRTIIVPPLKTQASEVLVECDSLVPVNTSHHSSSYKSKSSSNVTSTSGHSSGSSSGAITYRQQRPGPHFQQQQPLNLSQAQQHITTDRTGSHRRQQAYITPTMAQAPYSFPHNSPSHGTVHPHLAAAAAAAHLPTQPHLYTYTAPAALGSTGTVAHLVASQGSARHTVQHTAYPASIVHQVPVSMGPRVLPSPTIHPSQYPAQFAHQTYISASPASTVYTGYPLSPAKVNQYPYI
# RET (human), sequence (P07949 whole entry, looked up): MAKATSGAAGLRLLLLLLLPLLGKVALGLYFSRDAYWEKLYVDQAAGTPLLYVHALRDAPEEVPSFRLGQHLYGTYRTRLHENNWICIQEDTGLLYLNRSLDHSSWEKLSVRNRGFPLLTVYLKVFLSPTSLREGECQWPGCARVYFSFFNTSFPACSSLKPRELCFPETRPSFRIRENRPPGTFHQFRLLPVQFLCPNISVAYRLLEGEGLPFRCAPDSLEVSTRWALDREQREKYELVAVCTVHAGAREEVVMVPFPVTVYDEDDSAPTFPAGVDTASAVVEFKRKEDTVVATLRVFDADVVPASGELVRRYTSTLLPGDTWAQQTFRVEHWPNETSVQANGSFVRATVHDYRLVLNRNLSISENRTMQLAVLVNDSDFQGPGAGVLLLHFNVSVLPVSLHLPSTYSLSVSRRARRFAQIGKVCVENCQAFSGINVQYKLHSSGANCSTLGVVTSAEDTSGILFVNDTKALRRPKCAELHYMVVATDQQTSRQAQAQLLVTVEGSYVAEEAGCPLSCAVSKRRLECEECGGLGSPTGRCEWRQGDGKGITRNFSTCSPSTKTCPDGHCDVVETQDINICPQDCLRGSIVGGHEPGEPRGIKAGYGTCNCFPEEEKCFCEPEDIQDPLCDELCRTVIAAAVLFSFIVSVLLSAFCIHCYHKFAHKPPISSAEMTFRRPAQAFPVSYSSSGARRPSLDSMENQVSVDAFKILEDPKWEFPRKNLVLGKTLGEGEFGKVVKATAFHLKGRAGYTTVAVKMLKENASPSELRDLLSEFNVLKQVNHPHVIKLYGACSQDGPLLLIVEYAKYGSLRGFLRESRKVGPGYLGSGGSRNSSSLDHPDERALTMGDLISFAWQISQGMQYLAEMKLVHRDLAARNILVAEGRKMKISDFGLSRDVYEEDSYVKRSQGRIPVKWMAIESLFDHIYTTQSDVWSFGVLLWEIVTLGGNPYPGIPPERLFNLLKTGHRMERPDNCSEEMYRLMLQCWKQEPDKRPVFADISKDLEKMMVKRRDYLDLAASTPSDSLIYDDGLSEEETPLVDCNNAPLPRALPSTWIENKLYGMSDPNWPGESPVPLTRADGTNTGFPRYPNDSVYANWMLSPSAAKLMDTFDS
# MAP2K5 (human), sequence (Q13163 whole entry, looked up): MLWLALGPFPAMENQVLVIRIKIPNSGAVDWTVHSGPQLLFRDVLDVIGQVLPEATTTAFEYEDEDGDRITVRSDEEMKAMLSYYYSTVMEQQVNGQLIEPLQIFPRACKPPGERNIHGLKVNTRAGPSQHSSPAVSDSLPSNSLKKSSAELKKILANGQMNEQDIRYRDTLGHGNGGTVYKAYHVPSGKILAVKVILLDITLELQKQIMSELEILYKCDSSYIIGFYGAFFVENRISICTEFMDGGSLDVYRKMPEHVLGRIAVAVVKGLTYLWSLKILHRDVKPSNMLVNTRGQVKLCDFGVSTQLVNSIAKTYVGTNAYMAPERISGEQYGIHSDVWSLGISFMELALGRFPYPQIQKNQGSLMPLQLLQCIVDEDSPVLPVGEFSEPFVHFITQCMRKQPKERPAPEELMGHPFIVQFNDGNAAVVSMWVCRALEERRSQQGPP
smiles,measurement,setting,value
CC(C)n1nc(-c2cc3cc(O)ccc3[nH]2)c2c(N)ncnc21,"kinase still bound, per cent of control",ANKK1 (human),8.8%
same,"kinase still bound, per cent of control",BLK (human),1.2%
same,"kinase still bound, per cent of control",MAPK3 (human),100%
same,"kinase still bound, per cent of control",MAK (human),99%
same,"kinase still bound, per cent of control",RET (human),0%
same,"kinase still bound, per cent of control",NUAK1 (human),86%
same,"kinase still bound, per cent of control",DDR1 (human),6.4%
same,"kinase still bound, per cent of control",CHEK1 (human),66%
same,"kinase still bound, per cent of control",NEK11 (human),74%
same,"kinase still bound, per cent of control",MAP2K5 (human),0.35%
same,"kinase still bound, per cent of control",TLK1 (human),75%
same,"kinase still bound, per cent of control",EIF2AK1 (human),93%
same,"kinase still bound, per cent of control",MAP2K4 (human),3.4%
same,"kinase still bound, per cent of control",PAK3 (human),59%
same,"kinase still bound, per cent of control",STK38 (human),60%
same,"kinase still bound, per cent of control",LTK (human),16%
same,"kinase still bound, per cent of control",HIPK2 (human),0.9%
same,"kinase still bound, per cent of control",SBK1 (human),92%
same,"kinase still bound, per cent of control",HCK (human),2.5%
same,"kinase still bound, per cent of control",RPS6KA5 KD2 (human),22%
same,"kinase still bound, per cent of control",EPHA8 (human),1.2%
same,"kinase still bound, per cent of control",IRAK4 (human),44%
same,"kinase still bound, per cent of control",MAP3K10 (human),53%
same,per cent of control,CDK4 CCND1 (human),60%
same,"kinase still bound, per cent of control",TIE1 (human),49%
same,"kinase still bound, per cent of control",TBK1 (human),84%
same,"kinase still bound, per cent of control",EPHA5 (human),55%
same,"kinase still bound, per cent of control",SGK110 (human),100%
same,"kinase still bound, per cent of control",MERTK (human),61%
same,"kinase still bound, per cent of control",AAK1 (human),31%
same,per cent of control,CDK2 (human),69%
same,"kinase still bound, per cent of control",[1],8.2%
same,"kinase still bound, per cent of control",STK38L (human),63%
same,"kinase still bound, per cent of control",CLK4 (human),9.7%
same,"kinase still bound, per cent of control",PRKCI (human),52%
same,per cent of control,PLK1 (human); compound 1.0 µM,89%
same,per cent of control,PLK1 (human); compound 10.0 µM,47%
same,per cent of control,LCK (mouse); compound 1.0 µM,13%
same,per cent of control,LCK (mouse); compound 10.0 µM,4%
same,per cent of control,CSNK1D (human); compound 1.0 µM,50%
same,per cent of control,CSNK1D (human); compound 10.0 µM,9%
CCC(=O)N1CCN(c2ccc(-n3c(=O)ccc4cnc5ccc(-c6cnc7ccccc7c6)cc5c43)cc2C(F)(F)F)CC1,"kinase still bound, per cent of control",ANKK1 (human),93%
same,"kinase still bound, per cent of control",BLK (human),75%
same,"kinase still bound, per cent of control",MAPK3 (human),91%
same,"kinase still bound, per cent of control",MAK (human),68%
same,"kinase still bound, per cent of control",RET (human),44%
same,"kinase still bound, per cent of control",NUAK1 (human),100%
same,"kinase still bound, per cent of control",DDR1 (human),100%
same,"kinase still bound, per cent of control",CASK (human),100%
same,"kinase still bound, per cent of control",NEK11 (human),65%
same,"kinase still bound, per cent of control",MAP2K5 (human),100%
same,"kinase still bound, per cent of control",TLK1 (human),100%
same,"kinase still bound, per cent of control",EIF2AK1 (human),57%
same,"kinase still bound, per cent of control",MAP2K4 (human),30%
same,"kinase still bound, per cent of control",PAK3 (human),100%
same,"kinase still bound, per cent of control",STK38 (human),100%
same,"kinase still bound, per cent of control",LTK (human),77%
same,"kinase still bound, per cent of control",HIPK2 (human),58%
same,"kinase still bound, per cent of control",SBK1 (human),88%
same,"kinase still bound, per cent of control",HCK (human),77%
same,"kinase still bound, per cent of control",RPS6KA5 KD2 (human),100%
same,"kinase still bound, per cent of control",EPHA8 (human),71%
same,"kinase still bound, per cent of control",IRAK4 (human),90%
same,"kinase still bound, per cent of control",MAP3K10 (human),99%
same,per cent of control,CDK4 CCND1 (human),100%
same,"kinase still bound, per cent of control",TIE1 (human),100%
same,"kinase still bound, per cent of control",BMX (human),59%
same,"kinase still bound, per cent of control",TBK1 (human),93%
same,"kinase still bound, per cent of control",EPHA5 (human),100%
same,"kinase still bound, per cent of control",SGK110 (human),94%
same,"kinase still bound, per cent of control",MERTK (human),53%
same,"kinase still bound, per cent of control",AAK1 (human),75%
same,per cent of control,CDK2 (human),6.2%
same,"kinase still bound, per cent of control",[1],70%
same,"kinase still bound, per cent of control",STK38L (human),94%
same,"kinase still bound, per cent of control",CLK4 (human),49%
same,"kinase still bound, per cent of control",PRKCI (human),85%
same,per cent of control,PLK1 (human); compound 1.0 µM,94%
same,per cent of control,PLK1 (human); compound 10.0 µM,84%
same,per cent of control,LCK (mouse); compound 1.0 µM,93%
same,per cent of control,LCK (mouse); compound 10.0 µM,78%
same,per cent of control,CSNK1D (human); compound 1.0 µM,93%
same,per cent of control,CSNK1D (human); compound 10.0 µM,104%
COC(=O)Nc1ccc(-c2nc(N3CCOCC3)c3cnn(C4CCN(C(=O)OC)CC4)c3n2)cc1,"kinase still bound, per cent of control",ANKK1 (human),97%
same,"kinase still bound, per cent of control",BLK (human),100%
same,"kinase still bound, per cent of control",MAPK3 (human),99%
same,"kinase still bound, per cent of control",MAK (human),100%
same,"kinase still bound, per cent of control",RET (human),93%
same,"kinase still bound, per cent of control",NUAK1 (human),72%
same,"kinase still bound, per cent of control",DDR1 (human),100%
same,"kinase still bound, per cent of control",CASK (human),100%
same,"kinase still bound, per cent of control",CHEK1 (human),96%
same,"kinase still bound, per cent of control",NEK11 (human),85%
same,"kinase still bound, per cent of control",MAP2K5 (human),100%
same,"kinase still bound, per cent of control",TLK1 (human),91%
same,"kinase still bound, per cent of control",EIF2AK1 (human),56%
same,"kinase still bound, per cent of control",MAP2K4 (human),74%
same,"kinase still bound, per cent of control",PAK3 (human),83%
same,"kinase still bound, per cent of control",STK38 (human),88%
same,"kinase still bound, per cent of control",LTK (human),87%
same,"kinase still bound, per cent of control",HIPK2 (human),65%
same,"kinase still bound, per cent of control",SBK1 (human),100%
same,"kinase still bound, per cent of control",HCK (human),100%
same,"kinase still bound, per cent of control",RPS6KA5 KD2 (human),88%
same,"kinase still bound, per cent of control",EPHA8 (human),97%
same,"kinase still bound, per cent of control",IRAK4 (human),82%
same,"kinase still bound, per cent of control",MAP3K10 (human),100%
same,per cent of control,CDK4 CCND1 (human),100%
same,"kinase still bound, per cent of control",TIE1 (human),99%
same,"kinase still bound, per cent of control",BMX (human),94%
same,"kinase still bound, per cent of control",TBK1 (human),99%
same,"kinase still bound, per cent of control",EPHA5 (human),100%
same,"kinase still bound, per cent of control",SGK110 (human),92%
same,"kinase still bound, per cent of control",MERTK (human),100%
same,"kinase still bound, per cent of control",AAK1 (human),86%
same,per cent of control,CDK2 (human),91%
same,"kinase still bound, per cent of control",[1],100%
same,"kinase still bound, per cent of control",STK38L (human),97%
same,"kinase still bound, per cent of control",CLK4 (human),94%
same,"kinase still bound, per cent of control",PRKCI (human),100%
same,per cent of control,PLK1 (human); compound 1.0 µM,105%
same,per cent of control,PLK1 (human); compound 10.0 µM,88%
same,per cent of control,LCK (mouse); compound 1.0 µM,100%
same,per cent of control,LCK (mouse); compound 10.0 µM,91%
same,per cent of control,CSNK1D (human); compound 1.0 µM,90%
same,per cent of control,CSNK1D (human); compound 10.0 µM,92%
